# Measured values: ChEMBL document CHEMBL5113398, “Design and synthesis of new quinoline derivatives as selective C-RAF kinase inhibitors with potent anticancer activity” (Eur J Med Chem, 2022)
# Legend:
# [1] = Apparent permeability across apical to basolateral side in human Caco-2 cells assessed as drug recovery at pH 6.5 to 7.4; type: ADME, cell-based; conditions: Caco-2, pH 6.5, read-out: Drug recovery
# [2] = Apparent permeability of the compound from apical to basolateral side in human Caco-2 cells at pH 6.5 to 7.4; type: ADME, cell-based; conditions: Caco-2, pH 6.5
# [3] = Aqueous solubility of compound by HPLC analysis; type: physicochemical
# EKVX = experiment: Anticancer activity against human EKVX cells assessed as cell growth inhibition incubated for 48 hrs by SRB assay; type: functional
# SK-OV-3 = experiment: Anticancer activity against human SK-OV-3 cells assessed as cell growth inhibition incubated for 48 hrs by SRB assay; type: functional
# TK-10 [4] = experiment: Anticancer activity against human TK-10 cells assessed as cell growth inhibition incubated for 48 hrs by SRB assay; type: functional
# HCT-15 = experiment: Anticancer activity against human HCT-15 cells assessed as cell growth inhibition incubated for 48 hrs by SRB assay; type: functional
# COLO 205 = experiment: Anticancer activity against human COLO 205 cells assessed as cell growth inhibition incubated for 48 hrs by SRB assay; type: functional
# NCI/ADR-RES = experiment: Anticancer activity against human NCI/ADR-RES cells assessed as cell growth inhibition incubated for 48 hrs by SRB assay; type: functional
# MDA-MB-468 [5] = experiment: Anticancer activity against human MDA-MB-468 cells assessed as total cell growth inhibition incubated for 48 hrs by SRB assay; type: functional
# M14 = experiment: Anticancer activity against human M14 cells assessed as cell growth inhibition incubated for 48 hrs by SRB assay; type: functional
# HL-60 = experiment: Anticancer activity against human HL-60 cells assessed as total cell growth inhibition incubated for 48 hrs by SRB assay; type: functional
# ACHN [6] = experiment: Anticancer activity against human ACHN cells assessed as total cell growth inhibition incubated for 48 hrs by SRB assay; type: functional
# NCI-H23 [7] = experiment: Anticancer activity against human NCI-H23 cells assessed as total cell growth inhibition incubated for 48 hrs by SRB assay; type: functional
# MOLT-4 = experiment: Anticancer activity against human MOLT-4 cells assessed as total cell growth inhibition incubated for 48 hrs by SRB assay; type: functional
# UO-31 = experiment: Anticancer activity against human UO-31 cells assessed as cell growth inhibition incubated for 48 hrs by SRB assay; type: functional
# PC-3 = experiment: Anticancer activity against human PC-3 cells assessed as cell growth inhibition incubated for 48 hrs by SRB assay; type: functional
# HOP-62 = experiment: Anticancer activity against human HOP-62 cells assessed as cell growth inhibition incubated for 48 hrs by SRB assay; type: functional
# NCI-H522 = experiment: Anticancer activity against human NCI-H522 cells assessed as cell growth inhibition incubated for 48 hrs by SRB assay; type: functional
# NCI-H23 [8] = experiment: Anticancer activity against human NCI-H23 cells assessed as cell growth inhibition incubated for 48 hrs by SRB assay; type: functional
# IGROV-1 [9] = experiment: Anticancer activity against human IGROV-1 cells assessed as cell growth inhibition incubated for 48 hrs by SRB assay; type: functional
# U-251 = experiment: Anticancer activity against human U-251 cells assessed as cell growth inhibition incubated for 48 hrs by SRB assay; type: functional
# SF-268 = experiment: Anticancer activity against human SF-268 cells assessed as cell growth inhibition incubated for 48 hrs by SRB assay; type: functional
# HOP-92 = experiment: Anticancer activity against human HOP-92 cells assessed as total cell growth inhibition incubated for 48 hrs by SRB assay; type: functional
# UACC-257 [10] = experiment: Anticancer activity against human UACC-257 cells assessed as cell growth inhibition incubated for 48 hrs by SRB assay; type: functional
# [11] = n-Octanol/PBS partition coefficient, logD of the compound at pH 7.4; type: physicochemical
# IGROV-1 [12] = experiment: Anticancer activity against human IGROV-1 cells assessed as total cell growth inhibition incubated for 48 hrs by SRB assay; type: functional
# ACHN [13] = experiment: Anticancer activity against human ACHN cells assessed as cell growth inhibition incubated for 48 hrs by SRB assay; type: functional
# SW-620 = experiment: Anticancer activity against human SW-620 cells assessed as cell growth inhibition incubated for 48 hrs by SRB assay; type: functional
# NCI-H322M = experiment: Anticancer activity against human NCI-H322M cells assessed as cell growth inhibition incubated for 48 hrs by SRB assay; type: functional
# TK-10 [14] = experiment: Anticancer activity against human TK-10 cells assessed as total cell growth inhibition incubated for 48 hrs by SRB assay; type: functional
# MCF7 = experiment: Anticancer activity against human MCF7 cells assessed as cell growth inhibition incubated for 48 hrs by SRB assay; type: functional
# A498 = experiment: Anticancer activity against human A498 cells assessed as cell growth inhibition incubated for 48 hrs by SRB assay; type: functional
# SN12C = experiment: Anticancer activity against human SN12C cells assessed as cell growth inhibition incubated for 48 hrs by SRB assay; type: functional
# SK-MEL-28 = experiment: Anticancer activity against human SK-MEL-28 cells assessed as cell growth inhibition incubated for 48 hrs by SRB assay; type: functional
# UACC-257 [15] = experiment: Anticancer activity against human UACC-257 cells assessed as total cell growth inhibition incubated for 48 hrs by SRB assay; type: functional
# MDA-MB-468 [16] = experiment: Anticancer activity against human MDA-MB-468 cells assessed as cell growth inhibition incubated for 48 hrs by SRB assay; type: functional
# NCI-H460 = experiment: Anticancer activity against human NCI-H460 cells assessed as cell growth inhibition incubated for 48 hrs by SRB assay; type: functional
# CCRF-CEM = experiment: Anticancer activity against human CCRF-CEM cells assessed as cell growth inhibition incubated for 48 hrs by SRB assay; type: functional
# MDA-MB-231 = experiment: Anticancer activity against human MDA-MB-231 cells assessed as cell growth inhibition incubated for 48 hrs by SRB assay; type: functional
# HT-29 = experiment: Anticancer activity against human HT-29 cells assessed as cell growth inhibition incubated for 48 hrs by SRB assay; type: functional
# Malme-3M = experiment: Anticancer activity against human Malme-3M cells assessed as cell growth inhibition incubated for 48 hrs by SRB assay; type: functional
# NCI-H226 = experiment: Anticancer activity against human NCI-H226 cells assessed as cell growth inhibition incubated for 48 hrs by SRB assay; type: functional
# SK-MEL-2 = experiment: Anticancer activity against human SK-MEL-2 cells assessed as cell growth inhibition incubated for 48 hrs by SRB assay; type: functional
# [17] = Cytotoxicity against human WI-38 cells assessed as cell growth inhibition incubated for 48 hrs by SRB assay; type: toxicity, cell-based
smiles,measurement,setting,value
COc1cc2c(c(OC)c1OC)-c1ccc(OC)c(=O)cc1[C@@H](NC(C)=O)CC2 [COLCHICINE],recovery,[1],75.5%
same,Papp A→B,[2],0.3 ×10⁻⁶ cm/s
O=C1NC(=O)C(c2ccccc2)(c2ccccc2)N1 [PHENYTOIN],solubility,[3],93.1 µM
CNC(=O)c1cc(Oc2ccc(NC(=O)Nc3ccc(Cl)c(C(F)(F)F)c3)cc2)ccn1 [SORAFENIB],GI50,EKVX,2.51 µM
same,GI50,SK-OV-3,2.51 µM
same,GI50,TK-10 [4],3.98 µM
same,GI50,HCT-15,2.51 µM
same,GI50,COLO 205,2 µM
same,GI50,NCI/ADR-RES,2.51 µM
same,TGI,MDA-MB-468 [5],7.94 µM
same,GI50,M14,2 µM
same,TGI,HL-60,100 µM
same,TGI,ACHN [6],10 µM
same,TGI,NCI-H23 [7],5.01 µM
same,TGI,MOLT-4,100 µM
same,GI50,UO-31,2.51 µM
same,GI50,PC-3,2 µM
same,GI50,HOP-62,2 µM
same,GI50,NCI-H522,2 µM
same,GI50,NCI-H23 [8],2 µM
same,GI50,IGROV-1 [9],2.51 µM
same,GI50,U-251,2 µM
same,GI50,SF-268,2.51 µM
same,TGI,HOP-92,5.01 µM
same,GI50,UACC-257 [10],2 µM
same,logD,[11],3.85
same,TGI,IGROV-1 [12],10 µM
same,GI50,ACHN [13],2.51 µM
same,solubility,[3],3.27 µM
same,GI50,SW-620,2.51 µM
same,GI50,NCI-H322M,2.51 µM
same,Papp A→B,[2],16.4 ×10⁻⁶ cm/s
same,TGI,TK-10 [14],10 µM
same,GI50,MCF7,2.51 µM
same,GI50,A498,2.51 µM
same,GI50,SN12C,2.51 µM
same,GI50,SK-MEL-28,2.51 µM
same,TGI,UACC-257 [15],5.01 µM
same,GI50,MDA-MB-468 [16],3.16 µM
same,GI50,NCI-H460,2.51 µM
same,GI50,CCRF-CEM,2 µM
same,GI50,MDA-MB-231,1.26 µM
same,GI50,HT-29,2 µM
same,GI50,Malme-3M,2 µM
same,GI50,NCI-H226,2 µM
same,GI50,SK-MEL-2,2 µM
same,GI50 at 48 h,[17],> 20 µM
CO[C@H]1/C=C/O[C@@]2(C)Oc3c(C)c(O)c4c(O)c(c(/C=N/N5CCN(C)CC5)c(O)c4c3C2=O)NC(=O)/C(C)=C\C=C\[C@H](C)[C@H](O)[C@@H](C)[C@@H](O)[C@@H](C)[C@H](OC(C)=O)[C@@H]1C [RIFAMPIN],logD,[11],1.31
same,solubility,[3],175 µM
CNC(=C[N+](=O)[O-])NCCSCc1ccc(CN(C)C)o1 [RANITIDINE],recovery,[1],82%
COc1cc2cc(Oc3ccc(NC(=O)Nc4cc(C(F)(F)F)cc(C(F)(F)F)c4)cc3)c(C)nc2cc1OC,logD,[11],3.1
same,solubility,[3],212 µM
CCC(C)(C)C(=O)O[C@H]1C[C@@H](C)C=C2C=C[C@H](C)[C@H](CC[C@@H]3C[C@@H](O)CC(=O)O3)[C@H]21 [SIMVASTATIN],logD,[11],4.45
CC(CCc1ccccc1)NCC(O)c1ccc(O)c(C(N)=O)c1 (stereo unspecified) [LABETALOL],recovery,[1],91%
same,Papp A→B,[2],72 ×10⁻⁶ cm/s
COc1cc2cc(Oc3ccc(NC(=O)Nc4ccc(Cl)c(C(F)(F)F)c4)cc3)c(C)nc2cc1OCCN(C)C,solubility,[3],114 µM
